# Assay results: patent US12344878B2, “Artificial organelles for enzymatic cofactor reduction” (priority 2020, dated 2025)
# Read-outs that look alike come from different tables or passages of the source.
# Legend:
# [1] = biological target: T1, Respiratory Complex I (CMI, NADH:ubiquinone oxidoreductase) (Escherichia coli, UniProt P0AFC7+P0AFD4+P31979+P33599); assay type: biochemical, E. coli
# T1 construct: made in house; host or cells: E. coli overexpression strain ANN0221
# Experimental: (§1) Complex I NADH:DQ oxidoreductase and proton pumping activity were measured simultaneously using a Flexstation 3 (Molecular Devices, Inc.). NADH:DQ oxidoreductase activity was monitored through NADH oxidation by fluorescence spectroscopy (λexictation=340 nm, λemission=455 nm), while proton gradient generation was determined by quenching of ACMA (λexictation=410 nm, λemission=480 nm). The assay was conducted at 28° C. in the corresponding buffer, 25 μL of proteoliposomes were added to 175 μL assay mixture containing 100 μM DQ, 200 μM NADH, 0.2 μM valinomycin, 2.5 μM ACMA and for decoupling and inhibition assays 5 μM CCCP (carbonyl cyanide 3-chlorophenylhydrazone) and 50 μM Piericidin A, respectively. The sample was incubated for 5 min prior to reaction initiation by addition of NADH. When conducting inhibition assays proteoliposomes were incubated for 5 min with Piericidin A before the addition of DQ.
# [2] = biological target: T2, Photosystem II (PSII) (Synechocystis sp., UniProt P09192+P16033); assay: Oxygen evolution assay (Clarke-type electrode); assay type: biochemical, Synechocystis sp. PCC6803
# T2 construct: made in house; host or cells: Synechocystis sp; PCC6803 strain with His-tagged CP47; thylakoid membranes
# Experimental: Oxygen evolution assays were performed using 50 mM MES, pH 6.5, 10 mM NaCl, 5 mM MgCl2, 20 mM CaCl2 using a Clarke-type electrode (Hansatech Instruments, Ltd.). 2 mM ferricyanide and either 300 μM 2,5-dicholor-1,4-benzoquinone (DCBQ) or 50 μM DQ was added as electron acceptor with […] of ChlA of the sample to a final volume of 1.5 mL. The reaction took place at 28° C. and was initiated by red light at 2800 μmol s^−1 m^−2.
# [3] = biological target: T1, Respiratory Complex I (CMI, NADH:ubiquinone oxidoreductase); assay: Complex I proton pumping (ACMA quenching) in CMI proteoliposomes; assay type: biochemical, E. coli
# Experimental: as §1
# [4] = system: T3, CMI:PSII proteoliposomes; assay: NAD+ photoreduction assay of CMI:PSII proteoliposomes (NADH fluorescence); assay type: biochemical, E. coli (CMI), Synechocystis sp. PCC6803 (PSII); conditions: for Max Rate NAD^+ Photoreduction: 4PSII:1CMI proteoliposomes; for Sum NADH: production plus remaining
# T3 construct: made in house; host or cells: CMI from E. coli strain ANN0221; PSII from Synechocystis sp; PCC6803 (His-tagged CP47); co-reconstituted in E. coli lipid liposomes
# Experimental: (§2) Photoreduction by CMI:PSII proteoliposomes were routinely performed at 28° C. in 5 mM MES, pH 6.5, 50 mM KCl, 5 mM MgCl2 2 mM CaCl2, 25 µL of proteoliposomes were added to 175 μL assay mixture containing 50 μM DQ, 0.2 μM valinomycin, 2.5 μM ACMA; and for decoupling and inhibition assays: 5 μM CCCP and 100 μM DCMU, respectively. The potassium ionophore, valinomycin, was added to collapse the electrical component of the PMF and generate a higher ΔpH. Without being bound by any theory, the reverse electron transfer activity of CMI is believed to be more dependent on the proton component of the […] than the electrical component of the […]. Saturating white light >2200 μmol photons m^−2 s^−1 was provided by a 100 W Mercury lamp. The light was passed through a 2 L water bath. The reaction was monitored using Flexstation 3 (Molecular Devices, Inc.), NADH concentration was monitored by fluorescence spectroscopy (λexictation=340 nm, λemission=455 nm), while the proton gradient generation was determined by the change in ACMA signal (λexictation=410 nm, λemission=480 nm).
# [5] = system: bacteriorhodopsin (bR) and CMI proteoliposomes; assay type: biochemical, H. salinarum (bR), E. coli (CMI); conditions: 0.2 μM valinomycin compared with 0.1 μM
# Experimental: (§3) Liposome preparation, enzyme reconstitution, NAD^+ photoreduction, and proton pumping assays were performed as described above.
# (§4) The pH-sensitive fluorophore 9-amino-6-chloro-2-methoxyacridine (ACMA) was used to conduct proton pumping assays. The rates of ACMA quenching were measured for CMI bR independently. Because of the non-linear relationship between ACMA quenching and ΔpH [54-55], the rate of ACMA quenching and de-quenching were calculated using the linear region of the ACMA signal, between 40-70% of the baseline.
# [6] = biological target: (+)CMI-(+)bR proteoliposomes (Escherichia coli, UniProt P0AFC7+P0AFD4+P31979+P33599); assay type: biochemical, E. coli (CMI), H. salinarum (bR)
# Experimental: as §2, §3
# In this study, an engineered artificial organelle capable of photoreduction of NAD^+ was created by vectorially integrating bR from H. salinarum and CMI from E. coli into proteoliposomes. The power source for this system is light which activates the proton translocation by bR. As a result, accumulation of H^+ within the lumen creates a proton motive force (PMF). The PMF is requisite to diminish the thermodynamic gap of the standard redox potentials between NADH/NAD^+ and QH2/Q. Reducing the thermodynamic barrier enables CMI to perform reverse electron transfer (RET) from QH2 to NAD^+ [10, 46].
# The experiments were initially conducted to determine whether the (+)CMI-(+)bR proteoliposomes could reduce NAD^+ and find suitable assay conditions.
# [7] = biological target: T4, bacteriorhodopsin (bR) and CMI proteoliposomes (Escherichia coli, UniProt P0AFC7+P0AFD4+P31979+P33599); assay type: biochemical, H. salinarum (bR), E. coli (CMI); conditions: 50 μM Piericidin A
# T4 construct: Bacteriorhodopsin from H. salinarum was purified using tangential flow filtration; made in house; host or cells: bR purified from H. salinarum; CMI from E. coli strain ANN0221; co-reconstituted in liposomes
# Experimental: as §3, §4
# [8] = system: T3, CMI:PSII proteoliposomes; assay: Proton gradient (ACMA signal) of CMI:PSII proteoliposomes; assay type: biochemical, E. coli (CMI), Synechocystis sp. PCC6803 (PSII); conditions: 100 μM DCMU
# Experimental: as §2
# [9] = CMI reconstituted with detergent at 18 mM
# [10] = CMI reconstituted with detergent at 26 mM
# [11] = PSII reconstituted with detergent at 7 mM
# [12] = CMI reconstituted with detergent at 7 mM
# [13] = CMI reconstituted with detergent at 1.8 mM
# [14] = CMI reconstituted with detergent at 3.8 mM
molecule,measurement,setting,value
"CCCCCCCCO[C@@H]1O[C@H](CO)[C@@H](O)[C@H](O)[C@H]1O [OG, n-octyl-β-D-glucoside]",NADH:DQ oxidoreductase activity,[1]; [9],5.24 umol min^−1 mg CMI^−1
same,NADH:DQ oxidoreductase activity,[1]; [10],8.95 umol min^−1 mg CMI^−1
same,O2 Evolution (mean ± S.D.),[2]; PSII reconstituted with detergent at 18 mM,306.95 ± 44.24 umol O2 hr^−1 ug ChIA
same,O2 Evolution (mean ± S.D.),[2]; PSII reconstituted with detergent at 26 mM,481.01 ± 192.16 umol O2 hr^−1 ug ChIA
same,ACMA Fluorescence decrease,[3]; [9],0.71%
same,ACMA Fluorescence decrease,[3]; [10],−0.16%
"C[C@H](CCC(=O)NCCC[N+](C)(C)CCCS(=O)(=O)[O-])[C@H]1CC[C@H]2[C@@H]3[C@H](O)C[C@@H]4C[C@H](O)CC[C@]4(C)[C@H]3C[C@H](O)[C@]12C [CHAPS, 3-[(3-cholamidopropyl)dimethylammonio]-1-propanesulfonate]",O2 Evolution (mean ± S.D.),[2]; PSII reconstituted with detergent at 3.0 mM,178.08 ± 9.91 umol O2 hr^−1 ug ChIA
same,O2 Evolution (mean ± S.D.),[2]; [11],509.24 ± 256.84 umol O2 hr^−1 ug ChIA
same,ACMA Fluorescence decrease,[3]; CMI reconstituted with detergent at 3.0 mM,0.58%
same,ACMA Fluorescence decrease,[3]; [12],74.54%
NC(=O)C1=CN([C@@H]2O[C@H](COP(=O)(O)OP(=O)(O)OC[C@H]3O[C@@H](n4cnc5c(N)ncnc54)[C@H](O)[C@@H]3O)[C@@H](O)[C@H]2O)C=CC1 [NADH],Max Production of NADH,[4]; 100 μM NADH injected,8.04 µM
same,NADH remaining prior to photoreduction,[4]; 100 μM NADH injected,2.05 µM
same,Max Rate NAD^+ Photoreduction,[4]; 100 μM NADH injected,132.30 nmol min^−1 mg CMI^−1
same,Sum NADH,[4]; 100 μM NADH injected,10.08 µM
same,Max Production of NADH,[4]; 200 μM NADH injected,9.10 µM
same,NADH remaining prior to photoreduction,[4]; 200 μM NADH injected,4.10 µM
same,Max Rate NAD^+ Photoreduction,[4]; 200 μM NADH injected,213.32 nmol min^−1 mg CMI^−1
same,Sum NADH,[4]; 200 μM NADH injected,13.20 µM
same,Max Production of NADH,[4]; 300 μM NADH injected,6.48 µM
same,NADH remaining prior to photoreduction,[4]; 300 μM NADH injected,8.19 µM
same,Max Rate NAD^+ Photoreduction,[4]; 300 μM NADH injected,178.71 nmol min^−1 mg CMI^−1
same,Sum NADH,[4]; 300 μM NADH injected,14.67 µM
same,Max Production of NADH,[4]; 400 μM NADH injected,1.53 µM
same,NADH remaining prior to photoreduction,[4]; 400 μM NADH injected,13.41 µM
same,Max Rate NAD^+ Photoreduction,[4]; 400 μM NADH injected,57.45 nmol min^−1 mg CMI^−1
same,Sum NADH,[4]; 400 μM NADH injected,14.94 µM
"polyethylene glycol p-(1,1,3,3-tetramethylbutyl)-phenyl ether [Triton X-100 ™]",NADH:DQ oxidoreductase activity,[1]; [13],−0.00 umol min^−1 mg CMI^−1
same,NADH:DQ oxidoreductase activity,[1]; [12],9.05 umol min^−1 mg CMI^−1
same,O2 Evolution (mean ± S.D.),[2]; PSII reconstituted with detergent at 1.8 mM,530.72 ± 2.53 umol O2 hr^−1 ug ChIA
same,O2 Evolution (mean ± S.D.),[2]; [11],218.69 ± 67.01 umol O2 hr^−1 ug ChIA
same,ACMA Fluorescence decrease,[3]; [13],−2.75%
same,ACMA Fluorescence decrease,[3]; [12],−4.90%
CC(C)[C@@H]1NC(=O)[C@H](C)OC(=O)[C@@H](C(C)C)NC(=O)[C@@H](C(C)C)OC(=O)[C@H](C(C)C)NC(=O)[C@H](C)OC(=O)[C@@H](C(C)C)NC(=O)[C@@H](C(C)C)OC(=O)[C@H](C(C)C)NC(=O)[C@H](C)OC(=O)[C@@H](C(C)C)NC(=O)[C@@H](C(C)C)OC1=O [valinomycin],ACMA quenching,[5],quenched the ACMA more than 0.1 μM
"CCCCCCCCCCCCO[C@@H]1O[C@H](CO)[C@@H](O[C@H]2O[C@H](CO)[C@@H](O)[C@H](O)[C@H]2O)[C@H](O)[C@H]1O [DDM, n-dodecyl-β-D-maltopyranoside]",NADH:DQ oxidoreductase activity,[1]; [14],13.43 umol min^−1 mg CMI^−1
same,NADH:DQ oxidoreductase activity,[1]; [12],0.76 umol min^−1 mg CMI^−1
same,O2 Evolution (mean ± S.D.),[2]; PSII reconstituted with detergent at 3.8 mM,565.87 ± 25.19 umol O2 hr^−1 ug ChIA
same,O2 Evolution (mean ± S.D.),[2]; PSII reconstituted with detergent at 6.8 mM,396.55 ± 69.76 umol O2 hr^−1 ug ChIA
same,ACMA Fluorescence decrease,[3]; [14],1.46%
same,ACMA Fluorescence decrease,[3]; [12],0.32%
"N#CC(C#N)=NNc1cccc(Cl)c1 [CCCP, carbonyl cyanide 3-chlorophenylhydrazone]",change in ACMA fluorescence of CMI proteoliposomes,[3]; incubation with 5 μM CCCP,minimal change in ACMA fluorescence
same,response of NADH production,[6],negative and significant response
C/C=C(\C)[C@H](O)[C@H](C)/C=C(C)/C=C/C/C(C)=C/Cc1nc(OC)c(OC)c(O)c1C [Piericidin A],inhibition of NADH:DQ oxidoreductase specific activity of CMI proteoliposomes,[1]; 50 μM Piericidin A,> 95%
same,inhibition of NADH oxidation by CMI,"[1]; 50 μM Piericidin A, (+)CMI-(−)bR proteoliposomes (FIG. 13)",> 95%
same,rate of ACMA signal increase during photoreduction,[7]; 0.0 mM DTT,3.96±0.64 ACMA % min^−1
same,rate of ACMA signal increase during photoreduction,[7]; 1.0 mM DTT,3.15±0.94 ACMA % min^−1
same,effect on NAD^+ reductase rates,[6]; 50 μM Piericidin A,significantly increased
same,NAD^+ reductase rate relative to samples with no Piericidin A,"[6]; 50 μM Piericidin A, 0.0 mM DTT",~3 times
same,NAD^+ reductase rate relative to samples with no Piericidin A,"[6]; 50 μM Piericidin A, 1.0 mM DTT",~4 times
same,reduction of the rate of NADH produced,"[6]; after 35 minutes, Piericidin A present",95%
"CN(C)C(=O)Nc1ccc(Cl)c(Cl)c1 [DCMU, 3-(3,4-dicholorophenyl)-1,1-dimethylurea]",average rate of NADH production after removal of light,[4]; 100 μM DCMU inhibited sample,−170.65±2.26 nmol min^−1 mg CMI^−1
same,rate of NADH production of inhibited sample relative to non-inhibited sample,"[4]; 100 μM DCMU, illumination minus post illumination rates",39.05%±7.64
same,maximum rate of NADH production under illumination,[4]; proteoliposomes incubated 5 minutes with 100 μM DCMU,6.44±24.97 nmol min^−1 mg CMI^−1
same,inhibition of isolated PSII,[2]; 100 μM DCMU (FIG. 10),70%
same,ACMA signal increase relative to non-inhibited sample,[8],approximately 60%
